The test system of data set [1] is male ddY mice. Nature of the data set: Rotarod performance test-1. The class given is in vivo. The conditions noted are these: oral, 25 minutes after administration, dose at which time of fall is reduced to 50% of medium control. On the procedure: (§1) With regard to the AMPA receptor inhibitory action of the compounds, AMPA-induced intraneuronal calcium entry-suppressing action was examined using a primary culture system of embryonic rat cerebral cortex neurons. […] AMPA inhibitor-induced central nervous system depressant action such as loss of coordination was evaluated using a rotarod performance test.
Rotarod Performance Test-1
(§2) A rotarod (MK-660C from Muromachi Kikai Co., Ltd.) was used for the measurement. The rod (bar) was controlled to be gradually accelerated from its stationary state to a speed of 40 rotations/minute after 180 seconds. As the animals, 5 or 6-week-old male ddY mice (Japan SLC, Inc.) were used. On the day on which the test was performed, the mice were trained under the above-described measurement conditions, and mice that were able to ride on the rod for 1 minute or longer with good reproducibility were selected and subjected to the test.
Each of the compounds was dissolved in a medium (a solution prepared by adding DMSO to a 0.5% methylcellulose solution to a final concentration of 10%. As required, 0.5 to 5% of 1 mol/L hydrochloric acid and 5% Cremophor™ were added), and then orally administered to the mice in optimum four doses between 0.5 to 10 mg/kg. As the control, only the medium was orally administered. After a lapse of 25 minutes from the oral administration of each compound, the mice were subjected to the rotarod performance test. Five to twenty-five mice were used for each compound group.
A general note: In the rotarod test animals must keep their balance on a rotating rod.

In data set [2] the test system is AMPA receptor. As to the kind of experiment: AMPA-induced intraneuronal calcium entry-suppressing action (primary culture of embryonic rat cerebral cortex neurons, Fura 2-AM). The class given is cell-based. The conditions noted are these: AMPA stimulation, intracellular calcium increase, read-out: IC50 for AMPA inhibition. An excerpt: The present inventors conducted the following tests, in order to confirm the effects of the compounds of the present invention. With regard to the AMPA receptor inhibitory action of the compounds, AMPA-induced intraneuronal calcium entry-suppressing action was examined using a primary culture system of embryonic rat cerebral cortex neurons. With regard to the anticonvulsant action of the compounds, 6 Hz (44 mA) stimulation-induced convulsions known as a treatment-resistant convulsion model were used. AMPA inhibitor-induced central nervous system depressant action such as loss of coordination was evaluated using a rotarod performance test.
AMPA-Induced Intraneuronal Calcium Entry-Suppressing Action
<Culture conditions> Whole fetuses were removed from the uteri of Wistar rats at embryonic day 18 (Charles River Japan) anesthetized with isoflurane. Whole brains were removed from the whole fetuses, and the cerebral cortex was separated in Leibovitz's L-15 medium or Hanks balanced salt solution containing 20% fetal bovine serum. The resulting material was treated with trypsin/DNase solution at 37° C. for 45 to 60 minutes. After the serum was added to stop the trypsin reaction, the resulting material was centrifuged at 1200 to 1500 rpm for 3 to 5 minutes. After the supernatant was removed, Neurobasal medium (containing 2% B-27 supplement and the like; hereinafter “Neurobasal medium”) was added, and the cells were uniformly dispersed by gently pipetting. The cell suspension was slightly stirred, and then filtered through a nylon mesh filter. Viable cells were counted using a hemocytometer, and diluted with Neurobasal medium to 8 to 10×10^5 cells/mL. The cells were seeded into 96 well plates at 100 μL per well and cultured in a CO2 incubator (5% CO2, 37° C.). The medium was replaced after 24 hours, and neurons cultured for 7 to 21 days were used.
On the day of the assay, the medium was removed and replaced with a calcium measurement solution containing 5 to 10 μmol/L of Fura 2-AM (140 mmol/L sodium chloride, 5 mmol/L potassium chloride, 2 mmol/L magnesium chloride, 3 mmol/L calcium chloride, 24 mmol/L D(+)-glucose, 10 mmol/L HEPES, 1 μmol/L MK-801, pH 7.4), and the cells were treated in a CO2 incubator (5% CO2, 37° C.) for 1 to 2 hours. The calcium measurement solution containing the Fura-2 AM solution was subsequently removed, and the neurons in each well were washed twice with the calcium measurement solution for each well, and then 50 μL of the calcium measurement solution was added to each well. Subsequently, 50 μL of a test compound or medium prepared at a concentration 3-fold higher than the final concentration was added, and the cells were pre-treated for about 15 minutes. The plates were subsequently placed on the Fluorescence Drug Screening System 6000 (Hamamatsu Photonics K.K.). The cells were stimulated by adding to each well 50 μL of an AMPA stimulating solution prepared to 3.3 μmol/L with the calcium measurement solution. Changes in calcium concentration were measured as the changes in fluorescence intensity at excitation wavelengths of 340 nm and 380 nm (measurement wavelength: 540 nm). The rate of change of the intracellular calcium concentration was calculated according to the following equation: Rate of increase of the intracellular calcium concentration (% control)=(Tpost−Tpre)/(Cpost−Cpre)×100
wherein Tpost: the proportion of fluorescence of sample wells after stimulation; Tpro: the proportion of fluorescence of sample wells before stimulation; Cpost: the proportion of fluorescence of control wells after stimulation; and Cpre: the proportion of fluorescence of control wells before stimulation.
The IC50 value of the test compound for AMPA inhibition was determined from the rates of increase of the intracellular calcium concentration at various concentrations.

The subject of data set [3] is male ddY mice. Nature of the data set: Rotarod performance test-2. It counts as in vivo. The conditions noted are these: for Time of Fall: mice, oral at the ED50 dose of the 6 Hz model, 25 minutes after administration; for Ratio Relative to the Control Compound: time of fall relative to control compound. On the procedure: Rotarod Performance Test-2
as §2
As the control, only the medium was orally administered. After a lapse of 25 minutes from the oral administration of each compound, the mice were subjected to the rotarod performance test. Five or six mice were used for each compound group. For each compound, the time until the mice fell from the rotarod was measured.

The subject of data set [4] is male ddY mice. As to the kind of experiment: Murine 6 Hz convulsion models (6 Hz, 44 mA corneal stimulation). It counts as in vivo. Particulars: for ED50: Mus musculus, 25 min; for Therapeutic Index: TD50/ED50 (rotarod test-1 / 6 Hz convulsion model). On the procedure: as §1
Immediately after the rotarod performance test-1 was completed, the cornea was stimulated by passing an electrical current (6 Hz, 44 mA, 0.2-millisecond pulse, for 3 seconds) from a copper electrode moistened with physiological saline, and the presence or absence of the development of a seizure was observed. The seizure was determined by the development of akinesia, jaw and forelimb clonus, whisker tremors, and Straub tail.
Further, for the purpose of evaluating the safety margin of each of the compounds of the present invention, the therapeutic index (TD50/ED50) was calculated by comparing the seizure inhibitory action (ED50) in the 6 Hz convulsion models and the neurotoxic action (TD50) in the rotarod performance test-1.

Where two headings read alike, the source gives them in different places.

The source of these data is US9738656B2, “Pyranodipyridine compound” (Eisai R&D Management Co., Ltd., priority 2015, dated 2017).

The term IC50 denotes the concentration at which inhibition is half-maximal. One may read the ED50 as the dose that gives a 50% effect, or the effect in half of the subjects.

Consider `O=c1c(-c2c(F)cccc2F)cc2c(n1-c1cccnc1)COc1cccnc1-2` [Referential Example 1, 9-(2,6-difluorophenyl)-7-(pyridin-3-yl)-6H-pyrano[3,2-b:5,4-b′]dipyridin-8(7H)-one], for which, in data set [1], the TD50 is listed as 5.16 mg/kg, p.o. Further, the concentration for half-maximal inhibition (IC50) in data set [2] stood at 44.1 nM. In data set [3] (Table 3), the “Time of Fall” value was 110.7 s and the “Ratio Relative to the Control Compound” value was 9.1. Besides, the median effective dose (ED50) in data set [4] (mice, 6 Hz 44 mA stimulation-induced seizure, oral, after rotarod test-1 (25 minutes after administration), read-out: ED50) worked out at 1.41 mg/kg. Besides, the “Therapeutic Index” value in data set [4] (mice) is given as 3.66.

With `N#Cc1c(F)ccc(F)c1-c1cc2c(n(-c3cccnc3)c1=O)COc1cccnc1-2` [Example 19, 3,6-difluoro-2-(8-oxo-7-(pyridin-3-yl)-7,8-dihydro-6H-pyrano[3,2-b:5,4-b′]dipyridin-9-yl)benzonitrile], in data set [1], the TD50 is 3.25 mg/kg, p.o. In addition, the IC50 in data set [2] amounted to 23.4 nM. In addition, in data set [3] (Table 4), the “Time of Fall” value worked out at 121.7 s and the “Ratio Relative to the Control Compound” value came out at 8.5. Also, the ED50 in data set [4] (po) was determined as 2 mg/kg. Moreover, in data set [4] (mice), the “Therapeutic Index” value was 1.63.
